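Briefly, cells in 96-well plates were exposed to five compound concentrations for 48 h, and endpoints were estimated by linear interpolation. Here, GI50 denotes the concentration required for 50% inhibition of growth. At the TGI there is no net growth.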
How the values were obtained:
Test in all cases: NCI tumour cell line growth inhibition, 48 h
[1] = system: NCI-H522 lung
[2] = system: NCI/ADR-RES ovarian
[3] = system: HL-60(TB) leukemia
[4] = system: SF-268 CNS
[5] = system: OVCAR-8 ovarian
[6] = system: HS 578T breast
[7] = system: MCF7 breast
[8] = system: U251 CNS
[9] = system: A549 NSCLC
[10] = system: IGROV1 ovarian

Row | Structure (SMILES) | TGI [1] | TGI [2] | TGI [3] | TGI [4] | TGI [5] | TGI [6] | TGI [7] | TGI [8] | TGI [9] | TGI [10] | GI50 [1] | GI50 [2] | GI50 [3] | GI50 [4] | GI50 [5] | GI50 [6] | GI50 [7] | GI50 [8] | GI50 [9] | GI50 [10]
1 | CCC(C)C(=O)OCC(=O)c1ccc(-c2ccccc2)cc1 (stereo unspecified) | 74.9 µM | > 100 µM | > 100 µM | > 100 µM | > 100 µM | > 100 µM | > 100 µM | > 100 µM | > 100 µM | > 100 µM | – | – | – | – | – | – | – | – | – | –
2 | CCCCCCNCc1cc(C(C)(C)C)cc(CNCCCCCC)c1O | 3.13 µM | 3.24 µM | 3.33 µM | 3.32 µM | 3.37 µM | 4.03 µM | 3.17 µM | 2.91 µM | 3.08 µM | 3.36 µM | 1.65 µM | 1.75 µM | 1.68 µM | 1.7 µM | 1.75 µM | 1.72 µM | 1.71 µM | 1.57 µM | 1.71 µM | 1.76 µM
3 | NC(=O)c1sc(-n2cnc3cc(C(F)(F)F)ccc32)cc1OCc1ccccc1Br | > 25 µM | > 25 µM | > 25 µM | > 25 µM | > 25 µM | > 25 µM | > 25 µM | > 25 µM | > 25 µM | > 25 µM | > 20 µM | > 17.4 µM | > 25 µM | > 17.5 µM | 21.4 µM | 12.4 µM | > 13.4 µM | > 15.8 µM | > 25 µM | > 25 µM
4 | O=C(CCCN1CCC(C(O)c2ccc(F)cc2)CC1)c1ccc(F)cc1 (stereo unspecified) | 139 µM | 149 µM | 120 µM | 122 µM | 125 µM | 116 µM | 122 µM | 106 µM | 123 µM | 130 µM | – | – | – | – | – | – | – | – | – | –
5 | N#CC(C#N)=C/C=C(\Sc1ccc(F)cc1Cl)c1ccc(Cl)cc1 | 10.8 µM | 7.53 µM | 49.2 µM | 1.9 µM | 6.46 µM | 28.2 µM | 2.55 µM | 1.69 µM | 12.5 µM | > 54.5 µM | 1.93 µM | 0.791 µM | 0.52 µM | 0.457 µM | 0.601 µM | 1.53 µM | 0.417 µM | 0.414 µM | 2.22 µM | 1.81 µM
6 | NC1(Cc2ccc(Cl)cc2)CCN(c2ncnc3[nH]ccc23)CC1 | 27.7 µM | 26.5 µM | 17.6 µM | 21.3 µM | 25.4 µM | 14.6 µM | 17.6 µM | 17.5 µM | 21.6 µM | 7.8 µM | 12.6 µM | 9.97 µM | 3.39 µM | 6.66 µM | 11.1 µM | 2.17 µM | 4.1 µM | 3.73 µM | 5.02 µM | 1.01 µM
7 | COc1ccc(C(=O)c2sc3nc(-c4cccs4)ccc3c2N)cc1OC | 95.8 µM | > 100 µM | > 100 µM | > 100 µM | > 100 µM | > 100 µM | > 100 µM | > 100 µM | > 100 µM | > 100 µM | 2.86 µM | 3.61 µM | 4.14 µM | 8.33 µM | 5.56 µM | 6.27 µM | 2.79 µM | 7.78 µM | 4.71 µM | 7.72 µM
8 | CCOC(=O)Nc1cc2ccccc2c(N=Nc2ccccc2)c1O | > 100 µM | > 100 µM | > 100 µM | > 100 µM | > 100 µM | > 100 µM | > 100 µM | > 100 µM | > 100 µM | > 100 µM | – | – | – | – | – | – | – | – | – | –
9 | COc1cc2c(c(OC)c1OC)-c1ccc(N=NC(N)=S)c(=O)cc1[C@@H](NC(C)=O)CC2 | – | 49.1 µM | – | > 100 µM | > 100 µM | – | > 100 µM | > 100 µM | > 100 µM | – | 0.354 µM | 17.5 µM | 0.378 µM | 0.716 µM | 2.19 µM | 0.294 µM | 0.364 µM | 0.426 µM | 3.63 µM | 0.482 µM
10 | CC(C)(C)N/N=C(\C(=O)NC1=C(Cl)C(=O)c2ccccc2C1=O)C1C=CCS1(=O)=O (stereo unspecified) | 25.5 µM | 71.9 µM | > 100 µM | > 100 µM | 72 µM | 64.8 µM | 29 µM | > 100 µM | 38.5 µM | 24.5 µM | – | – | – | – | – | – | – | – | – | –
11 | CCCCOC1OC(COC(=O)C(C)C)C(OC(=O)C(C)C)C(O)C1OC1OC(C)C(OC(=O)CCC)C(OC(=O)C(C)C)C1O (stereo unspecified) | 39.6 µM | 11.7 µM | 42.9 µM | 29 µM | 37.8 µM | 39.7 µM | 61.6 µM | 26.4 µM | 26.5 µM | 58.5 µM | 19.1 µM | 3.85 µM | 18.1 µM | 12.2 µM | 19.6 µM | 20.7 µM | 8.4 µM | 13.6 µM | 13.6 µM | 22.7 µM
12 | CCN1C(=NCCO)NS(=O)(=O)c2ccccc21 | > 100 µM | > 100 µM | > 100 µM | > 100 µM | > 100 µM | > 100 µM | > 100 µM | > 100 µM | > 100 µM | > 100 µM | – | – | – | – | – | – | – | – | – | –
13 | CN(C)c1cccc(F)c1C(=O)NC(=O)Nc1ccc(Cl)cc1 | 5.77 µM | > 44.4 µM | 18.1 µM | > 100 µM | > 86.4 µM | > 22.3 µM | > 100 µM | > 100 µM | > 100 µM | > 100 µM | – | – | – | – | – | – | – | – | – | –
14 | CC1=Nc2c([nH]c(=S)[nH]c2=O)NC(c2c(Cl)cccc2Cl)C1 (stereo unspecified) | 7.33 µM | 0.412 µM | 2.54 µM | 3.96 µM | 1.85 µM | 17.1 µM | 3.12 µM | 2.32 µM | 15 µM | 5.45 µM | – | – | – | – | – | – | – | – | – | –
15 | CC(=O)/C=C/c1ccc(OCc2ccc(Cl)cc2)cc1 | > 1000 µM | > 1000 µM | > 1000 µM | > 1000 µM | > 1000 µM | > 1000 µM | > 1000 µM | > 1000 µM | > 1000 µM | > 1000 µM | 295 µM | 395 µM | 405 µM | 670 µM | 613 µM | > 1000 µM | 644 µM | > 1000 µM | > 1000 µM | > 1000 µM
